From ChEMBL document CHEMBL5465560, “Selectivity Literature for EUbOPEN Chemogenomic Library” (2024)
Each block holds one compound with its values, some of them ahead of it.

What was measured:
[1] = molecular target: T1, Protein arginine N-methyltransferase 9 (Homo sapiens) (UniProt Q6P2P2); assay: Selectivity interaction (Methyltransferase screen (radiometric assays, panel of 8 PRMTs, 21 protein lysine methyltransferases, 3 DNA methyltransferases, and one RNA methyltransferase)) EUB0000272b PRMT9
T1 sequence (whole entry): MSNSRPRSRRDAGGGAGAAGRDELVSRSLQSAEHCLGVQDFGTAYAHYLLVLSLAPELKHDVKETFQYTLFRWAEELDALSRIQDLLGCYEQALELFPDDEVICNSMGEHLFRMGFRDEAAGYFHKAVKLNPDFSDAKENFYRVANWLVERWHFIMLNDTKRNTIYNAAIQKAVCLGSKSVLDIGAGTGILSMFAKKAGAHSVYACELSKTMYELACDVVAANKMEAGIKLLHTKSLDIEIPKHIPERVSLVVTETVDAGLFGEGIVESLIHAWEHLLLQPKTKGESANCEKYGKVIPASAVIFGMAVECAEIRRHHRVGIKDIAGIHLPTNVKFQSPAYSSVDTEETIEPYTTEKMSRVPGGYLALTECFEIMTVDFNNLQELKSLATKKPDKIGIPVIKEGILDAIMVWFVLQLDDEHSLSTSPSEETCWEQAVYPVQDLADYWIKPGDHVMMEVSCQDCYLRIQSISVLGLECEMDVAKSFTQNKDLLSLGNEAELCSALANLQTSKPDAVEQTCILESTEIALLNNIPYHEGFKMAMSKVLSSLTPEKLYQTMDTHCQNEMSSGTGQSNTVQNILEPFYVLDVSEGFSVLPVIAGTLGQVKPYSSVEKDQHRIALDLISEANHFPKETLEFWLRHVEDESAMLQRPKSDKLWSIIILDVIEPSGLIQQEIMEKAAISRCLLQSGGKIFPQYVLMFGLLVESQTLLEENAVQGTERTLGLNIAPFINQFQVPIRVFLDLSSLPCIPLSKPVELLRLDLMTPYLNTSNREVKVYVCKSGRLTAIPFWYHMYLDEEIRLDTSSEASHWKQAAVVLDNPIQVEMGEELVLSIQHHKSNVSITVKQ

[2] = molecular target: T2, Serine/threonine-protein kinase BRSK1 (Homo sapiens) (UniProt Q8TDC3); assay: Selectivity interaction (Ambit KINOMEscan and KiNATiv profiling in Jurkat cells) EUB0000090b BRSK1; assay type: cell-based; details: at 1 µM
T2 sequence (whole entry): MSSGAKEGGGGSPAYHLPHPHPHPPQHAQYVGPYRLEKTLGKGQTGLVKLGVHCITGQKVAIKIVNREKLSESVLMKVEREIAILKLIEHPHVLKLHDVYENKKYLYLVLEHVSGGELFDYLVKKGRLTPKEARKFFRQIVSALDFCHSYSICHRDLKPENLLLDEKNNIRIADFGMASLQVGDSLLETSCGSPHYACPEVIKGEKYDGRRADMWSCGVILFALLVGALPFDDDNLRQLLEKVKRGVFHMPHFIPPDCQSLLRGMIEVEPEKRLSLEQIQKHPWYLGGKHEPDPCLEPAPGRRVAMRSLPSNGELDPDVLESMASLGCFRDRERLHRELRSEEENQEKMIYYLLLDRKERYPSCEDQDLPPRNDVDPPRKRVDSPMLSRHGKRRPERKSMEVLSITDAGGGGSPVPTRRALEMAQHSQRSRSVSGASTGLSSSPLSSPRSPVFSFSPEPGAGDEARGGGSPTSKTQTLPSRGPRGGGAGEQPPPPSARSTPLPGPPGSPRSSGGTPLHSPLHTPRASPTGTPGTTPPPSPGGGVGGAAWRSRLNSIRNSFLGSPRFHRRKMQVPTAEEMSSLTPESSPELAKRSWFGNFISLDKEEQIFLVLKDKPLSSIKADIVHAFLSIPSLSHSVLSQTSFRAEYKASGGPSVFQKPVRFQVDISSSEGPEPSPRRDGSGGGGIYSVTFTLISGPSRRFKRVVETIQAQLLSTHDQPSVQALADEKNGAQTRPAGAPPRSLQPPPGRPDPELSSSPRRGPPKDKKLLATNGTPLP

[3] = molecular target: Cyclin-dependent kinase 15 (Homo sapiens) (UniProt Q96Q40); assay: Selectivity interaction (KinomeScan (DiscoverX)) EUB0000045b CDK15
Chain of Cyclin-dependent kinase 15 (Homo sapiens) (Q96Q40 whole entry): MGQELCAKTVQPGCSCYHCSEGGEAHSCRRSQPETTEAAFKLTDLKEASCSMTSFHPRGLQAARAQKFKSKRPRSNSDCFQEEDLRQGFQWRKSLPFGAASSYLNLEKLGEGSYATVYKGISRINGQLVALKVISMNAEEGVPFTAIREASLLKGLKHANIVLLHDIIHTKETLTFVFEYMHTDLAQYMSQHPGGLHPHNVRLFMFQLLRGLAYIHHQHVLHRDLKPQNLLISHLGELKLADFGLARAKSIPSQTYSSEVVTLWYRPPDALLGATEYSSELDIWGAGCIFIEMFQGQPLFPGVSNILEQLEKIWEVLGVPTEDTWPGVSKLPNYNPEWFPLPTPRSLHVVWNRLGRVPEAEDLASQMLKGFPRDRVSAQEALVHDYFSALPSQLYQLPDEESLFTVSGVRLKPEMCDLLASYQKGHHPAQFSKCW

[4] = molecular target: Serine/threonine-protein kinase 38 (Homo sapiens) (UniProt Q15208); details: at 10 µM
Chain of Serine/threonine-protein kinase 38 (Homo sapiens) (Q15208 2-465 limits assumed): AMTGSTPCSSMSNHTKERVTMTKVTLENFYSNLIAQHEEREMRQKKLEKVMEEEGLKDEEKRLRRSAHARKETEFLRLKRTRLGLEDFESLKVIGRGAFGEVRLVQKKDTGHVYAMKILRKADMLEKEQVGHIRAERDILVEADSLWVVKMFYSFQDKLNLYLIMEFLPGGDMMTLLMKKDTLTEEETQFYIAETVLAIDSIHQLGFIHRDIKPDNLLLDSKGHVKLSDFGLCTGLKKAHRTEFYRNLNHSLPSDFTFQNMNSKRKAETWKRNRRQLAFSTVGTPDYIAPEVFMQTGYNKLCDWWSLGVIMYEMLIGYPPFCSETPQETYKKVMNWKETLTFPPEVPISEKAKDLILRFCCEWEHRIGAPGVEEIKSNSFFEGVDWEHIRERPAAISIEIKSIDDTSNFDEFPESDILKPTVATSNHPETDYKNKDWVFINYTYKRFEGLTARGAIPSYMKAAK

[5] = molecular target: T3, Serine/threonine-protein kinase TAO1 (Homo sapiens) (UniProt Q7L7X3); details: at 10 µM
T3 sequence (whole entry): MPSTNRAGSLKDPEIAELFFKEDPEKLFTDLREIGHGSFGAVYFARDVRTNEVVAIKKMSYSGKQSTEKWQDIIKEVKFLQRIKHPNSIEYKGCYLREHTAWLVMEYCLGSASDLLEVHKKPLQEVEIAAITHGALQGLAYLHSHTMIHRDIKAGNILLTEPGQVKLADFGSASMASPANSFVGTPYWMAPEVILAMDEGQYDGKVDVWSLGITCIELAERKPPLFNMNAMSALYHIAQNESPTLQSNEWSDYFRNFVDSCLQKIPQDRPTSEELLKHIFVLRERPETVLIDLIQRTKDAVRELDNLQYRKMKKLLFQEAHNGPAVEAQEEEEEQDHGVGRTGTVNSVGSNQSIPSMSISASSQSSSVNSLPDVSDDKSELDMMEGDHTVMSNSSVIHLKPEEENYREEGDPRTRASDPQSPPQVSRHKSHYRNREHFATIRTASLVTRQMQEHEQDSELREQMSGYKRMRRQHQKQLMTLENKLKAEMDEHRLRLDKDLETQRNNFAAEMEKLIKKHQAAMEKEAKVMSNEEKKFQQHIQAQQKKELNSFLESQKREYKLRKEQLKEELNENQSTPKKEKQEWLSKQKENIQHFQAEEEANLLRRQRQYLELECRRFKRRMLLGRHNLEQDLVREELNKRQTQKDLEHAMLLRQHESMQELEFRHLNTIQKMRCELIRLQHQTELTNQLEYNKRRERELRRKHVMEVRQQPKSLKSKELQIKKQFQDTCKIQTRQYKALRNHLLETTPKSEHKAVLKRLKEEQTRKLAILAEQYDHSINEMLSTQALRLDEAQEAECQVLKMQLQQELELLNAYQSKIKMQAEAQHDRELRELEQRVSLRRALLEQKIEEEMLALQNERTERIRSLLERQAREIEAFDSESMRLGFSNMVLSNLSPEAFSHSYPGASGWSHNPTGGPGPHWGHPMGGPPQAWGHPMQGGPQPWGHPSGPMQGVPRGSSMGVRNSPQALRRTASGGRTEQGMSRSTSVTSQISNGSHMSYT

[6] = molecular target: Serine/threonine-protein kinase SIK3 (Homo sapiens) (UniProt Q9Y2K2); assay: Selectivity interaction (KinomeScan (DiscoverX)) EUB0001619a SIK3; details: at 1 µM
Chain of Serine/threonine-protein kinase SIK3 (Homo sapiens) (Q9Y2K2 whole entry, looked up): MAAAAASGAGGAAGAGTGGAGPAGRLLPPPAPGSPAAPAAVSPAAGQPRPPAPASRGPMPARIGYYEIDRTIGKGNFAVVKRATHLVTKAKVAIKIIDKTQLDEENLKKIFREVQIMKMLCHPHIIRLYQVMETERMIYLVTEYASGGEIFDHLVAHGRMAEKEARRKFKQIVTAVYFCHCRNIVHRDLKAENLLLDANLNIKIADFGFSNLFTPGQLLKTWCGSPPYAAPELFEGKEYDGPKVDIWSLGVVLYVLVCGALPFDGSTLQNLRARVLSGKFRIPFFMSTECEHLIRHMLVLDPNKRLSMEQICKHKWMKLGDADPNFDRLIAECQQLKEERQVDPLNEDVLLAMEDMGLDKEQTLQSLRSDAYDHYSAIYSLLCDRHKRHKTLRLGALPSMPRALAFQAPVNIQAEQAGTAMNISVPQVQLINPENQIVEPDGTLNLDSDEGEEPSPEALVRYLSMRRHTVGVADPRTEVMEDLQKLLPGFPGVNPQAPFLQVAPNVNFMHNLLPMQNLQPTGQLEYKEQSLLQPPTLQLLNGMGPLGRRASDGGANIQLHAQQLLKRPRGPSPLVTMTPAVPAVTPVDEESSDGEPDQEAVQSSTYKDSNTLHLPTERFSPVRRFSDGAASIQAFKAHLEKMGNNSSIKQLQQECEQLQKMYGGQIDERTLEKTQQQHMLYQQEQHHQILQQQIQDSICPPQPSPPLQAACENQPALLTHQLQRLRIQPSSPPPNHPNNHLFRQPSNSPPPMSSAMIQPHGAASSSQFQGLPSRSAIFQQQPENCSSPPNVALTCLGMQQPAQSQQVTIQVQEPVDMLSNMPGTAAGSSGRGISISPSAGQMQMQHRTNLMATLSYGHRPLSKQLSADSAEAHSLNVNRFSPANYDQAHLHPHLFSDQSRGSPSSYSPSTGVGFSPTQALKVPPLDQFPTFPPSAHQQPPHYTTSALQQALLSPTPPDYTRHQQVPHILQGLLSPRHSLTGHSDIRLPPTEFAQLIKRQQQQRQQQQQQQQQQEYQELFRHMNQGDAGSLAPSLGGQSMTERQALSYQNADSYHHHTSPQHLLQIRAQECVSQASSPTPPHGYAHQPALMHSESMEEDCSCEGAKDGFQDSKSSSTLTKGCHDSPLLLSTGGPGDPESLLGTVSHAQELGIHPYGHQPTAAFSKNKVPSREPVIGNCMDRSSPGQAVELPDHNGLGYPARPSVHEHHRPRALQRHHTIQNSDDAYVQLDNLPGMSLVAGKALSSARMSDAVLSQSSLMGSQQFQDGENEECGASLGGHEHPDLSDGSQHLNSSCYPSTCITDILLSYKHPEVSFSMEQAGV

% of activity ([1]; at 1 µM): 105%
% of activity ([1]; at 10 µM): 105%
Compound: Cc1cc(C)cc([C@H]2c3cc(C)ccc3NC(=O)CN2C(=O)c2ccc(Br)s2)c1

Compound: CN(C)C/C=C/C(=O)Nc1ccc(C(=O)N2CCCC(Nc3ncc(Cl)c(-c4c[nH]c5ccccc45)n3)C2)cc1 (stereo not drawn)
% of control [2]: 84%

Compound: C=CC(=O)Nc1cc(-n2c(=O)ccc3cnc4ccc(-c5ccc(NS(C)(=O)=O)cc5)cc4c32)ccc1C
% of control ([3]; at 1 µM): 100%
% of control ([3]; at 10 µM): 72%

Compound: Cc1cc([C@@H](C)Nc2ccccc2C(=O)O)c2nc(N3CCOCC3)cc(=O)n2c1 [AZD-6482]
% of control [4]: 100%
% of control [5]: 59%

Compound: N#Cc1cccc(-c2c[nH]c3ncnc(N4CCOCC4)c23)c1
% of control [6]: 100%
